Test results published in article PMC8041433 (Environmental Health Perspectives, 2021).
Several values for one entry are separate records, joined by “and”; a condition that tells them apart may be missing. Equal entries are not always repeated. Structures can show the parent of a compound that is named as a salt. Where two headings read alike, the source gives them in different places.

Legend:
recombinant human AChE [1] = target: T1, recombinant human AChE (Homo sapiens, UniProt P22303); as to IR or R: key: Reversible (R); Irreversible (IR); ND, not detected in enzyme-based AChE inhibition assay from current study
T1 sequence (P22303 32-614): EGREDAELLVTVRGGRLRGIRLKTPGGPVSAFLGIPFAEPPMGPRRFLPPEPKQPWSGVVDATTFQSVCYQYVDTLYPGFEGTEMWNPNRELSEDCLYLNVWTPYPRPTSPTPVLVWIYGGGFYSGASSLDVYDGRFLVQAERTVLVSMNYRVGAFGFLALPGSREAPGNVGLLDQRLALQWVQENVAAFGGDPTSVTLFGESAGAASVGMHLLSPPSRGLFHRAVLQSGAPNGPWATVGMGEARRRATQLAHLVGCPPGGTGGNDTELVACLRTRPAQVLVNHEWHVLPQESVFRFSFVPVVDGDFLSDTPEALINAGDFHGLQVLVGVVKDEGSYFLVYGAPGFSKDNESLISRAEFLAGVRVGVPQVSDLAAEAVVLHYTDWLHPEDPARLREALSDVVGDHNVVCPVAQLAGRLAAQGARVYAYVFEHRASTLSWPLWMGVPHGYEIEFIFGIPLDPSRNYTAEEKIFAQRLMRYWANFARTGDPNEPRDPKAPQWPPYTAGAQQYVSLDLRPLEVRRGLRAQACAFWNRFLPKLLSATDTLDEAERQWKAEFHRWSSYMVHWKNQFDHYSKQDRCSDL

AChE in SH-SY5Y cells = AChE in SH-SY5Y cells (Homo sapiens, UniProt P22303); assay: cell-based
Sequence of AChE in SH-SY5Y cells (P22303 32-614): as above

recombinant human AChE [2] = target: T1, recombinant human AChE; assay: biochemical; details: potency (IC50), Enzyme with microsomes
recombinant human AChE [3] = target: T1, recombinant human AChE; assay: biochemical
recombinant human AChE [4] = target: T1, recombinant human AChE; assay: biochemical; remark: listed apart in the source
[5] = target: AChE in neural stem cells (Homo sapiens, UniProt P22303); assay: cell-based
Sequence of AChE in neural stem cells (P22303 32-614): as above

[6] = target: AChE in SH-SY5Y spheroids (Homo sapiens, UniProt P22303); assay: cell-based; details: potency (IC50)
Sequence of AChE in SH-SY5Y spheroids (P22303 32-614): as above

recombinant human AChE [7] = target: T1, recombinant human AChE; assay: biochemical; format: biochemical; details: for AC50: AC50 (uM)
[8] = target: AChE in neural stem cell spheroids (Homo sapiens, UniProt P22303); assay: cell-based; details: for IC50: potency (IC50)
Sequence of AChE in neural stem cell spheroids (P22303 32-614): as above

[9] = Neural stem cell spheroid (24 h)
[10] = Neural stem cell spheroid (48 h)
[11] = potency (IC50), SH-SY5Y cells monolayer

| Structure (SMILES) | CC-v2 (curve classes) (recombinant human AChE [1]) | Efficacy (recombinant human AChE [1]) | IC50 (AChE in SH-SY5Y cells; IC50 (uM)) | IC50 (recombinant human AChE [2]) [µM] | CC-v2 (curve classes) (recombinant human AChE [3]) | Efficacy (recombinant human AChE [3]) | IC50 (recombinant human AChE [3]; IC50 (uM)) [µM] | IC50 [5] [µM] | IC50 ([6]; SH-SY5Y spheroids (24 h)) [µM] | IC50 ([6]; SH-SY5Y spheroids (48 h)) [µM] | AC50 (recombinant human AChE [7]) | IC50 [8, 9] [µM] | IC50 [8, 10] [µM] | CC-v2 (curve classes) (AChE in SH-SY5Y cells) | IC50 (AChE in SH-SY5Y cells; [11]) [µM] | IC50 (recombinant human AChE [3]; potency (IC50), Enzyme) [µM] | IC50 (recombinant human AChE [4]) [µM] | IR or R (recombinant human AChE [7]) | AC50 (recombinant human AChE [7]; activity_5) | AC50 (recombinant human AChE [7]; activity_10) | further results |
| --- | --- | --- | --- | --- | --- | --- | --- | --- | --- | --- | --- | --- | --- | --- | --- | --- | --- | --- | --- | --- | --- |
| CCOP(=S)(OCC)SCSc1ccc(Cl)cc1 [Carbophenothion] | 4 | -18.784 | 89.4 µM | 3.74 | -2.2 | -28.575 | 89.4 | 2.96 | 28.1 | 19.6 | 19.3 µM and 17.2 µM and 21.7 µM | 2.19 | 3.31 | – | – | – | – | – | – | – | potency (IC50), SH-SY5Y cells monolayer (AChE in SH-SY5Y cells): Inactive; AChE inhibition (result in words) (recombinant human AChE [3]): did not show effects; potency (IC50), Enzyme (recombinant human AChE [3]): Inactive; potency (IC50), Enzyme-based assay with heat-inactivated microsomes (recombinant human AChE [4]): Inactive |
| Cc1nc2n(c(=O)c1CCN1CCC(C(=O)c3ccc(F)cc3)CC1)CCS2 [Setoperone, reference compound] | 4 | 0 | 13.8 µM and 12.3 µM and 15.5 µM | 18.6 ± 1.21 | -2.2 | -57.619 | 30.9 | 8.35 ± 1.14 | 2.66 ± 1.88 | 13.7 ± 1.58 | – | – | – | -2.1 | 16 ± 1.08 | 14.2 ± 0.96 | 20.1 ± 1.36 | R | 4.32 µM and 6.11 µM and 7.69 µM | 4.85 µM and 7.69 µM and 10.9 µM | AC50 (recombinant human AChE [7]; activity_60): 6.11 µM and 6.85 µM; potency (IC50), Neural stem cell spheroid (24 h) [8]: Inactive |
| CNC(=O)O/N=C/C(C)(C)[S+](C)[O-] (stereo not drawn) [Aldicarb sulfoxide] | -1.1 | – | 0.354 µM and 0.322 µM and 0.397 µM and 0.287 µM | 0.68 ± 0.09 | -1.1 | – | – | 0.34 ± 0.04 | 0.46 ± 0.08 | 0.56 | 498 nM and 789 nM and 885 nM and 993 nM and 1.11 µM and 559 nM (2×) and 198 nM and 627 nM | 0.24 ± 0.03 | 0.27 ± 0.17 | -1.1 | 0.67 ± 0.04 | 0.41 ± 0.02 | 0.78 ± 0.22 | – | – | – | fold more potent than aldicarb (recombinant human AChE [3]): 15 fold; IC50 (recombinant human AChE [3]; IC50): 0.61 µM |
| O=C(c1ccc(OCCN2CCCCC2)cc1)c1c(-c2ccc(O)cc2)sc2cc(O)ccc12 [Raloxifene hydrochloride, reference compound] | -1.1 | – | 27.5 µM and 25.2 µM and 31.7 µM | 3.42 ± 0.58 | -1.1 | – | – | 14.1 ± 1.61 | 1.03 ± 0.78 | 4.19 ± 0.94 | – | 6.29 ± 0.72 | 9.85 | -1.1 and -2.1 | 4.29 ± 0.59 | 2.14 ± 0.13 | 3.43 ± 0.58 | R | 1.57 µM and 2.22 µM and 1.11 µM | 1.57 µM and 1.4 µM and 3.14 µM | AC50 (recombinant human AChE [7]; activity_60): 1.25 µM and 1.11 µM and 2.22 µM |
